Values quoted from earlier work in paper PMC5493349, “Quaternary structure is an essential component that contributes to the sophisticated allosteric regulation mechanism in a key enzyme from Mycobacterium tuberculosis” (PLoS ONE, 2017).

What was measured:
Details in all cases: cited from earlier work
[1] = target: T1, wild-type MtuDAH7PS (Mycobacterium tuberculosis, UniProt O53512)
[2] = target: T1, wild-type MtuDAH7PS; remark: listed apart in the source
[3] = target: T1, wild-type MtuDAH7PS; remark: listed apart in the source

T1 sequence (O53512 whole entry): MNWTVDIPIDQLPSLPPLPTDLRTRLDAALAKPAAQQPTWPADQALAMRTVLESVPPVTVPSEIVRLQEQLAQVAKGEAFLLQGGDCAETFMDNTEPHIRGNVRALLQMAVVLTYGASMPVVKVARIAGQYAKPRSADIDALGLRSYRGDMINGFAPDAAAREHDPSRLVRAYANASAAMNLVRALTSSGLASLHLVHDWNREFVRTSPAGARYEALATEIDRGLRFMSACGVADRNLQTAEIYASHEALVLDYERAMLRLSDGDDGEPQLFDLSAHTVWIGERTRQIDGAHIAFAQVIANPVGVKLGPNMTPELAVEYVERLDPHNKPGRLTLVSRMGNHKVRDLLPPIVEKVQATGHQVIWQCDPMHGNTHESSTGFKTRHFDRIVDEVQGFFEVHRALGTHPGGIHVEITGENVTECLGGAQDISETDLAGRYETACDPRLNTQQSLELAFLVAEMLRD

| SMILES | E4P0.5 [1] | inhibition of wild type MtuDAH7PS by Trp alone [2] | reduction in Kd of Trp after pre-incubation with Phe [3] |
| --- | --- | --- | --- |
| O=C[C@H](O)[C@H](O)COP(=O)(O)O [E4P, erythrose 4-phosphate] | 382 µM | – | – |
| N[C@@H](Cc1c[nH]c2ccccc12)C(=O)O [Trp, L-Trp] | – | not inhibitory | 4 fold |
